Structures are written as SMILES.

For the experiment, the target named is human PD-L1 (Homo sapiens (Human), UniProt Q9NZQ7). Kind of experiment: T cell activation luciferase reporter cell culture system (T Cell Activation Assay). In kind it is cell-based. As to conditions: luciferase reporter assay; PD-L1 aAPC/CHO-K1 cells with PD-1 effector Jurkat T cells.
Chain of human PD-L1 (Q9NZQ7 19-290): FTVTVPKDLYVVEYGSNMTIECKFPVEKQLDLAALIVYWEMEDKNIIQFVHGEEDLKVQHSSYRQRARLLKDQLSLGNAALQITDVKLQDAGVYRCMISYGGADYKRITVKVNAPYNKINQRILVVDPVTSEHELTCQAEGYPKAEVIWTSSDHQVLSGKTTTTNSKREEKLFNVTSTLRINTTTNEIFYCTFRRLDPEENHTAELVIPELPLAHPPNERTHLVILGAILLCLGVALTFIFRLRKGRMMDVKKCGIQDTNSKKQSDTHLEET
In the case of `COc1nc(-c2cccc(-c3ccnc(-c4cc(OC)c5nc(CN[C@H]6C[C@](C)(O)C6)nn5c4)c3Cl)c2Cl)ccc1CNC1CCN(C(C)=O)CC1` [Example 596, 1-(4-(((6-(2-Chloro-3-(3-chloro-2-(2-((((1r,3r)-3-hydroxy-3-methylcyclobutyl)amino)methyl)-8-methoxy-[1,2,4]triazolo[1,5-a]pyridin-6-yl)pyridin-4-yl)phenyl)-2-methoxypyridin-3-yl)methyl)amino)piperidin-1-yl)ethan-1-one], the response was half-maximal at 350 nM (EC50).

`COc1nc(-c2cccc(-c3ccnc(-c4ccc(CN5CC6(CNC(=O)C6)C5)c(OC(F)F)c4)c3Cl)c2Cl)ccc1CN1CC2(CNC(=O)C2)C1` [Example 597, 2-((6-(2-Chloro-3-(3-chloro-2-(3-(difluoromethoxy)-4-((7-oxo-2,6-diazaspiro[3.4]octan-2-yl)methyl)phenyl)pyridin-4-yl)phenyl)-2-methoxypyridin-3-yl)methyl)-2,6-diazaspiro[3.4]octan-7-one] came in with an EC50 of 16.4 nM.

As for `COc1nc(-c2cccc(-c3ccnc(-c4ccc(CN5CC6(C5)CN(C(C)=O)C6)c(OC(F)F)c4)c3Cl)c2Cl)ccc1CN1CC2(C1)CN(C(C)=O)C2` [Example 598, 1-(6-((6-(3-(2-(4-((6-Acetyl-2,6-diazaspiro[3.3]heptan-2-yl)methyl)-3-(difluoromethoxy)phenyl)-3-chloropyridin-4-yl)-2-chlorophenyl)-2-methoxypyridin-3-yl)methyl)-2,6-diazaspiro[3.3]heptan-2-yl)ethan-1-one], the EC50 stood at 36.8 nM.

In turn, `COc1cc(-c2nccc(-c3cccc(-c4ccc(CNC5CC6(COC6)C5)c(OC)n4)c3C(F)(F)F)c2Cl)ccc1CNC1CC2(COC2)C1` (stereo not drawn) [Example 604, N-((6-(3-(2-(4-(((2-Oxaspiro[3.3]heptan-6-yl)amino)methyl)-3-methoxyphenyl)-3-chloropyridin-4-yl)-2-(trifluoromethyl)phenyl)-2-methoxypyridin-3-yl)methyl)-2-oxaspiro[3.3]heptan-6-amine] displayed a half-maximal effective concentration (EC50) of at least 10000 nM.

The compound `COCCC(=O)N1CCC(NCc2ccc(-c3cccc(-c4ccnc(-c5ccc(CNC6CCN(C(C)=O)CC6)c(OC)c5)c4Cl)c3Cl)nc2OC)CC1` [Example 607, 1-(4-(((6-(3-(2-(4-(((1-Acetylpiperidin-4-yl)amino)methyl)-3-methoxyphenyl)-3-chloropyridin-4-yl)-2-chlorophenyl)-2-methoxypyridin-3-yl)methyl)amino)piperidin-1-yl)-3-methoxypropan-1-one] gave an EC50 of 18.3 nM.

In turn, `COc1nc(-c2ccnc(-c3cccc4c3CC[C@@H]4Oc3nc(OC)c(CNC4CCOCC4)cc3C(F)(F)F)c2Cl)ccc1CNC[C@@H]1CCC(=O)N1` [Example 608, (S)-5-((((3′-Chloro-6-methoxy-2′-((S)-1-((6-methoxy-5-(((tetrahydro-2H-pyran-4-yl)amino)methyl)-3-(trifluoromethyl)pyridin-2-yl)oxy)-2,3-dihydro-1H-inden-4-yl)-[2,4′-bipyridin]-5-yl)methyl)amino)methyl)pyrrolidin-2-one] yielded a concentration giving a half-maximal response (EC50) of 22.4 nM.

The compound `COc1nc(-c2cccc(-c3ccnc(-c4ccc5c(c4)S(=O)(=O)CCN(C[C@H](C)O)C5)c3Cl)c2Cl)ccc1CNC[C@@H]1CCC(=O)N1` [Example 611, (S)-5-((((6-(2-Chloro-3-(3-chloro-2-(4-((S)-2-hydroxypropyl)-1,1-dioxido-2,3,4,5-tetrahydrobenzo[f][1,4]thiazepin-8-yl)pyridin-4-yl)phenyl)-2-methoxypyridin-3-yl)methyl)amino)methyl)pyrrolidin-2-one] registered an EC50 of at least 10000 nM.

Turning to `COc1cc(-c2nccc(-c3cccc(-c4ccc(CNCCO)c(OC)n4)c3C(F)(F)F)c2Cl)ccc1CNCCO` [Example 612, 2-(((6-(3-(3-Chloro-2-(4-(((2-hydroxyethyl)amino)methyl)-3-methoxyphenyl)pyridin-4-yl)-2-(trifluoromethyl)phenyl)-2-methoxypyridin-3-yl)methyl)amino)ethan-1-ol], the EC50 was at least 10000 nM.

For `CNCc1ccc(-c2nccc(-c3cccc(-c4ccc(CNC)c(OC)n4)c3C(F)(F)F)c2Cl)cc1OC` [Example 613, 1-(6-(3-(3-Chloro-2-(3-methoxy-4-((methylamino)methyl)phenyl)pyridin-4-yl)-2-(trifluoromethyl)phenyl)-2-methoxypyridin-3-yl)-N-methylmethanamine], the EC50 was at least 10000 nM.

The compound `COCCNCc1ccc(-c2nccc(-c3cccc(-c4ccc(CNCCOC)c(OC)n4)c3C(F)(F)F)c2Cl)cc1OC` [Example 614, N-((6-(3-(3-Chloro-2-(3-methoxy-4-(((2-methoxyethyl)amino)methyl)phenyl)pyridin-4-yl)-2-(trifluoromethyl)phenyl)-2-methoxypyridin-3-yl)methyl)-2-methoxyethan-1-amine] displayed an EC50 of at least 10000 nM.

With `COCCC(=O)N1CCC(NCc2ccc(-c3cccc(-c4ccnc(-c5ccc(CN6CCC(O)CC6)c(OC)c5)c4Cl)c3Cl)nc2OC)CC1` [Example 616, 1-(4-(((6-(2-Chloro-3-(3-chloro-2-(4-((4-hydroxypiperidin-1-yl)methyl)-3-methoxyphenyl)pyridin-4-yl)phenyl)-2-methoxypyridin-3-yl)methyl)amino)piperidin-1-yl)-3-methoxypropan-1-one], the EC50 was 36 nM.

As to `COc1nc(-c2cccc(-c3ccnc(-c4ccc(CNC[C@@H]5CCC(=O)N5)c(OC(F)F)c4)c3Cl)c2Cl)ccc1CNC[C@@H]1CCC(=O)N1` [Example 617, (S)-5-((((6-(2-Chloro-3-(3-chloro-2-(3-(difluoromethoxy)-4-(((((S)-5-oxopyrrolidin-2-yl)methyl)amino)methyl)phenyl)pyridin-4-yl)phenyl)-2-methoxypyridin-3-yl)methyl)amino)methyl)pyrrolidin-2-one], the half-maximal effective concentration (EC50) was 38.9 nM.

In the case of `COc1nc(-c2cccc(-c3ccnc(-c4ccc(CNC5CCOCC5)c(OC(F)F)c4)c3Cl)c2Cl)ccc1CNC1CCOCC1` [Example 618, N-((6-(2-Chloro-3-(3-chloro-2-(3-(difluoromethoxy)-4-(((tetrahydro-2H-pyran-4-yl)amino)methyl)phenyl)pyridin-4-yl)phenyl)-2-methoxypyridin-3-yl)methyl)tetrahydro-2H-pyran-4-amine], a half-maximal effect (EC50) was put at 57.7 nM.

`COc1nc(-c2cccc(-c3ccnc(-c4ccc(CNC5CCN(CCO)CC5)c(OC(F)F)c4)c3Cl)c2Cl)ccc1CNC1CCN(CCO)CC1` [Example 620, 2-(4-(((6-(2-Chloro-3-(3-chloro-2-(3-(difluoromethoxy)-4-(((1-(2-hydroxyethyl)piperidin-4-yl)amino)methyl)phenyl)pyridin-4-yl)phenyl)-2-methoxypyridin-3-yl)methyl)amino)piperidin-1-yl)ethan-1-ol] registered an EC50 of 44.9 nM.

For the compound `COc1cc(-c2ccnc(-c3cccc(-c4ccc(CN5CC6(CNC(=O)C6)C5)c(OC)n4)c3Cl)c2Cl)ccc1CN1CC2(CNC(=O)C2)C1` [Example 622, 2-(4-(3-Chloro-2-(2-chloro-3-(6-methoxy-5-((7-oxo-2,6-diazaspiro[3.4]octan-2-yl)methyl)pyridin-2-yl)phenyl)pyridin-4-yl)-2-methoxybenzyl)-2,6-diazaspiro[3.4]octan-7-one], the EC50 is 216 nM.

Broadly, the EC50 is the concentration at which the effect is half-maximal.

These data come from patent US20240246964A1 (Arbutus Biopharma Corporation, priority 2021, published 2024).
